According to US6613762B2, “Gambogic acid, analogs and derivatives as activators of caspases and inducers of apoptosis” (Cytovia, Inc., priority 1999, dated 2003):
Read-outs that look alike come from different tables or passages of the source.

Key:
[1] = test system: caspase cascade, T-47D cells; experiment: Known antineoplastic compounds as caspase cascade activators (Example 92), T-47D; format: cell-based, human; settings: 10 μM final, 24 h; ratio of net RFU to control; ratio around 1 = not an efficient activator
Experimental: (§8) An aliquot of 45 μl of cells was added to a well of a 96-well microtiter plate containing 5 μl of a 10% DMSO in RPMI-1640 media solution containing 100 μM of test compounds (10 μM final). An aliquot of 45 μl of cells was added to a well of a 96-well microtiter plate containing 5 μl of a 10% DMSO in RPMI-1640 media solution without test compound as the control sample. The samples were mixed by agitation and then incubated at 37° C. for 24 h in a 5% CO2-95% humidity incubator. After incubation, the samples were removed from the incubator and 50 μl of a solution containing 20 μM of N-(Ac-DEVD)-N′-ethoxycarbonyl-R110 fluorogenic substrate (SEQ ID NO:1) (Cytovia, Inc.), 20% sucrose (Sigma), 20 mM DTT (Sigma), 200 mM NaCl (Sigma), 40 mM Na PIPES buffer pH 7.2 (Sigma), and 500 μg/ml lysolecithin (Calbiochem) was added. The samples were mixed by agitation and incubated for 3 h at room temperature. Using a fluorescent plate reader (Model 1420 Wallac Instruments), an initial reading (T=0) was made approximately 1-2 min. after addition of the substrate solution, employing excitation at 485 nm and emission at 530 nm, to determine the background fluorescence of the control sample. After the 3 h incubation, the samples were read for fluorescence as above (T=3 h).
(§9) The Relative Fluorescence Unit values (RFU) were used to calculate the sample readings as follows:
(§10) The activity in caspase cascade activation was determined by the ratio of the net RFU value for test compounds to that of control samples.

[2] = test system: caspase cascade, PC-3 cells; experiment: Known antineoplastic compounds as caspase cascade activators (Example 92), PC-3; format: cell-based, human; settings: 10 μM final, 24 h; ratio of net RFU to control; ratio around 1 = not an efficient activator
Experimental: as §8, §9, §10

[3] = test system: caspase cascade, human prostate cancer cell line PC-3; experiment: Caspase cascade activation assay (Example 90), PC-3; format: cell-based; settings: 24 h incubation; for EC50: Homo sapiens, sigmoidal dose-response, read-out: PC-3 EC50 (caspase activation potency)
Experimental: (§1) Human breast cancer cell lines T-47D and ZR-75-1, human prostate cancer cell line PC-3, human leukemia cancer cell line HL-60 and human non-transformed fibroblast cell line MRC-5 cells were grown according to media component mixtures designated by The American Type Culture Collection+10% FCS (Life Technologies, Inc.), in a 5% CO2-95% humidity incubator at 37° C. T-47D, ZR-75-1 and PC-3 cells were maintained at a cell density between 30 and 80% confluency and for HL-60 at a cell density of 0.1 to 0.6×10^6 cells/m. Cells were harvested at 600× g and resuspended at 0.65×10^6 cells/ml into appropriate media +10% FCS. […] The samples were mixed by agitation and incubated at room temperature.
(§2) The EC50 (nM) was determined by a sigmoidal dose-response calculation (Prism 2.0, GraphPad Software Inc.).

[4] = test system: caspase cascade, human breast cancer cell line T-47D; experiment: Caspase cascade activation assay (Example 90), T-47D; format: cell-based; settings: 24 h incubation; for EC50: Homo sapiens, T47D, sigmoidal dose-response, read-out: T-47D EC50 (caspase activation potency)
Experimental: as §1, §2

[5] = test system: caspase cascade, human leukemia cancer cell line HL-60; experiment: Caspase cascade activation assay (Example 90), HL-60; format: cell-based; settings: Homo sapiens, HL-60; 24 h incubation; sigmoidal dose-response; read-out: HL-60 EC50 (caspase activation potency)
Experimental: as §1, §2

HL-60 cells = experiment: Inhibition of cell proliferation (GI50) and cell death (LC50), HL-60; format: cell-based; settings: Homo sapiens, HL-60, 48 h; for CC50: read-out: LC50 (dose for 50% cell death); for GI50: read-out: GI50 (dose for 50% inhibition of cell proliferation)
Experimental: (§3) T47D, ZR-75-1, PC-3, human prostate cancer cell line DU-145, human non-small cell lung cancer cell line A-549, human small cell lung cancer cell line SHP-77, HL-60 and MRC-5 cells were grown and harvested as in Example 90. […] The samples were mixed by agitation and incubated at 37° C. for 2-4 h in a 5% CO2-95% humidity incubator. […] This determines the possible background absorbance of the test compounds. No absorbance for gambogic acid or its analogs or derivatives was found at 490 nm. After the 2-4 h incubation, the samples were read for absorbance as above (ATest).
(§4) Baseline for GI50 (dose for 50% inhibition of cell proliferation) and LC50 (dose for 50% cell death) of initial cell numbers was determined by adding an aliquot of 90 μl of cells or 90 μl of media, respectively, to wells of a 96-well microtiter plate containing 10 μl of a 10% DMSO in RPMI-1640 media solution. […] The samples were mixed by agitation and incubated at 37° C. for 2-4 h in a 5% CO2-95% humidity incubator. Absorbance was read as above, (AT=0) defining absorbance for initial cell number used as baseline in GI50 determinations and (Amin) defining absorbance for media alone used as baseline in LC50 determinations.
(§5) GI50 (dose for 50% inhibition of cell proliferation)
(§6) LC50 (dose for 50% cell death)
(§7) 50=100×[(ATest−Amin)/(AT=0−Amin)]

[6] = test system: human prostate cancer cell line DU-145; experiment: Inhibition of cell proliferation (GI50) and cell death (LC50), DU-145; format: cell-based
Experimental: as §3, §4, §5, §6, §7

T-47D cells = experiment: Inhibition of cell proliferation (GI50) and cell death (LC50), T-47D; format: cell-based; settings: Homo sapiens, T47D, 48 h; for CC50: read-out: LC50 (dose for 50% cell death); for GI50: read-out: GI50 (dose for 50% inhibition of cell proliferation)
Experimental: as §3, §4, §5, §6, §7

ZR-75-1 cells = experiment: Inhibition of cell proliferation (GI50) and cell death (LC50), ZR-75-1; format: cell-based; settings: Homo sapiens, ZR-75-1, 48 h; for CC50: read-out: LC50 (dose for 50% cell death); for GI50: read-out: GI50 (dose for 50% inhibition of cell proliferation)
Experimental: as §3, §4, §5, §6, §7

[7] = test system: caspase cascade, human breast cancer cell line ZR-75-1; experiment: Caspase cascade activation assay (Example 90), ZR-75-1; format: cell-based; settings: Homo sapiens, ZR-75-1; 24 h incubation; sigmoidal dose-response; read-out: ZR-75-1 EC50 (caspase activation potency)
Experimental: as §1, §2

[8] = test system: human non-small cell lung cancer cell line A-549; experiment: Inhibition of cell proliferation (GI50) and cell death (LC50), A-549; format: cell-based; settings: Homo sapiens; for CC50: A549, 48 h, read-out: LC50 (dose for 50% cell death); for GI50: A549, A-549, 48 h, read-out: GI50 (dose for 50% inhibition of cell proliferation)
Experimental: as §3, §4, §5, §6, §7

PC-3 cells = experiment: Inhibition of cell proliferation (GI50) and cell death (LC50), PC-3; format: cell-based
Experimental: as §3, §4, §5, §6, §7

MRC-5 cells = experiment: Inhibition of cell proliferation (GI50) and cell death (LC50), MRC-5; format: cell-based; settings: Homo sapiens, MRC5; MRC-5, 48 h; read-out: GI50 (dose for 50% inhibition of cell proliferation)
Experimental: as §3, §4, §5, §6, §7

[9] = as above; format: cell-based; settings: human
Experimental: as §3, §4, §5, §6, §7

[10] = test system: human small cell lung cancer cell line SHP-77; experiment: Inhibition of cell proliferation (GI50) and cell death (LC50), SHP-77; format: cell-based; settings: Homo sapiens; for CC50: SHP77, 48 h, read-out: LC50 (dose for 50% cell death); for GI50: SHP77, SHP-77, 48 h, read-out: GI50 (dose for 50% inhibition of cell proliferation)
Experimental: as §3, §4, §5, §6, §7

caspase cascade = experiment: Caspase cascade activation assay (Example 90), MRC-5; format: cell-based, human; settings: human
Experimental: as §1, §2

KB-V1 cell line = settings: cited from earlier work
KB cell line = settings: cited from earlier work
[11] = Homo sapiens, DU-145, 48 h, read-out: LC50 (dose for 50% cell death)
[12] = Homo sapiens, DU-145, 48 h; read-out: GI50 (dose for 50% inhibition of cell proliferation)
[13] = Homo sapiens, PC-3, 48 h, read-out: LC50 (dose for 50% cell death)
[14] = Homo sapiens, PC-3, 48 h; read-out: GI50 (dose for 50% inhibition of cell proliferation)
[15] = reported by Lin et al., Magn. Reson. Chem. 31:340-347 (1993)
[16] = ratio of net RFU of test compound to control, 0.16 to 10 μM

## CC[C@@]1(O)C(=O)OCc2c1cc1n(c2=O)Cc2cc3ccccc3nc2-1 [Camptothecin]
[1]
  Caspase cascade activation ratio, T-47D: 0.7
[2]
  Caspase cascade activation ratio, PC-3: 0.6

## CC(C)=CCCC1(C)C=Cc2c(O)c3c(c(CC=C(C)C)c2O1)OC12C(=CC4CC1C(C)(C)OC2(C/C=C(/C)C(=O)N1CCCCC1)C4=O)C3=O (stereo not drawn) [Example 5, Gambogyl Piperidine]
[3]
  EC50: 900 nM
[4]
  EC50: 210 nM
[5]
  EC50: 200 nM
HL-60 cells
  CC50: 800 nM
  GI50: 100 nM
[6]; [11]
  CC50: 500 nM
[6]; [12]
  GI50: 500 nM
T-47D cells
  CC50: 50 nM
T-47D cells; T-47D
  GI50: 50 nM
ZR-75-1 cells
  CC50: 500 nM
  GI50: 300 nM
[7]
  EC50: 783 nM
[8]
  CC50: 5000 nM
  GI50: 800 nM
PC-3 cells; [13]
  CC50: 500 nM
PC-3 cells; [14]
  GI50: 500 nM
MRC-5 cells
  GI50: 800 nM
[9]
  CC50 at 48 h: 800 nM
[10]
  CC50: 500 nM
  GI50: 500 nM
Caspase cascade
  EC50 at 24 h: 631 nM

## CC[C@]1(O)C[C@@H]2CN(CCc3c([nH]c4ccccc34)[C@@](C(=O)OC)(c3cc4c(cc3OC)N(C)[C@H]3[C@@](O)(C(=O)OC)[C@H](OC(C)=O)[C@]5(CC)C=CCN6CC[C@]43[C@@H]65)C2)C1 [Vinblastine]
[1]
  Caspase cascade activation ratio, T-47D: 0.9
[2]
  Caspase cascade activation ratio, PC-3: 0.8

## CC(=O)O[C@H]1C(=O)[C@@]2(C)[C@H]([C@H](OC(=O)c3ccccc3)[C@]3(O)C[C@H](OC(=O)[C@H](O)[C@@H](NC(=O)c4ccccc4)c4ccccc4)C(C)=C1C3(C)C)[C@]1(OC(C)=O)CO[C@@H]1C[C@@H]2O [Taxol]
[1]
  Caspase cascade activation ratio, T-47D: 0.9
[2]
  Caspase cascade activation ratio, PC-3: 0.7

## COC(=O)/C(C)=C\CC12OC(C)(C)C3CC(C=C4C(=O)c5c(OC)c6c(c(CC=C(C)C)c5OC431)OC(C)(CCC=C(C)C)C=C6)C2=O (stereo not drawn) [Example 6, Methyl-6-methoxy-gambogate]
[3]
  EC50: 5000 nM
[4]
  EC50: 2800 nM
HL-60 cells
  CC50: 800 nM
  GI50: 100 nM
[6]; [11]
  CC50: 900 nM
[6]; [12]
  GI50: 500 nM
T-47D cells
  CC50: 80 nM
T-47D cells; T-47D
  GI50: 50 nM
ZR-75-1 cells
  CC50: 500 nM
  GI50: 400 nM
[8]
  CC50: 900 nM
  GI50: 500 nM
PC-3 cells; [13]
  CC50: 500 nM
PC-3 cells; [14]
  GI50: 500 nM
MRC-5 cells
  GI50: 500 nM
[9]
  CC50 at 48 h: 500 nM
[10]
  CC50: 500 nM
  GI50: 500 nM

## CC(C)=CCc1c2c(c(O)c3c1OC14C(=CC5CC1C(C)(C)OC4(C/C=C(\C)CO)C5=O)C3=O)C=CC(C)(C)O2 (stereo not drawn) [isomorellinol, reference compound]
KB-V1 cell line; [15]
  Cytotoxicity against KB-V1 cell line: cytotoxic
KB cell line; [15]
  Cytotoxicity against KB cell line: cytotoxic

## CC(C)=CCC/C(C)=C/Cc1c(O)c(CC=C(C)C)c2c(c1O)C(=O)C1=CC3CC4C(C)(C)OC(C/C=C(/C)C(=O)O)(C3=O)C14O2 (stereo not drawn) [Example 2, Gambogenic Acid]
[3]
  EC50: 1350 nM
[4]
  EC50: 310 nM
[5]
  EC50: 340 nM
[6]; [12]
  GI50: 600 nM
[6]; Homo sapiens, DU-145, 48 h; read-out: LC50 (dose for 50% cell death)
  CC50: 5000 nM
T-47D cells; T-47D
  GI50: 500 nM
  CC50: 500 nM
[7]
  EC50: 1160 nM
PC-3 cells; [14]
  GI50: 3000 nM
PC-3 cells; Homo sapiens, PC-3, 48 h; read-out: LC50 (dose for 50% cell death)
  CC50: 5000 nM
MRC-5 cells
  GI50: 500 nM
[9]; MRC-5, 48 h, read-out: LC50 (dose for 50% cell death)
  CC50: 5000 nM
Caspase cascade; 24 h incubation, sigmoidal dose-response, read-out: MRC-5 EC50 (caspase activation potency)
  EC50: 1260 nM

## COc1cccc2c1C(=O)c1c(O)c3c(c(O)c1C2=O)C[C@@](O)(C(=O)CO)C[C@@H]3O[C@H]1C[C@H](N)[C@H](O)[C@H](C)O1 [Doxorubicin]
[1]
  Caspase cascade activation ratio, T-47D: 1.3
[2]
  Caspase cascade activation ratio, PC-3: 1.1

## O=c1[nH]cc(F)c(=O)[nH]1 [5-fluorouracil]
[1]
  Caspase cascade activation ratio, T-47D: 0.8
[2]
  Caspase cascade activation ratio, PC-3: 0.7

## CN(Cc1cnc2nc(N)nc(N)c2n1)c1ccc(C(=O)N[C@@H](CCC(=O)O)C(=O)O)cc1 [Methotrexate]
[1]
  Caspase cascade activation ratio, T-47D: 0.8
[2]
  Caspase cascade activation ratio, PC-3: 0.7

## COc1cc([C@@H]2c3cc4c(cc3[C@@H](O[C@@H]3O[C@@H]5CO[C@@H](C)O[C@H]5[C@H](O)[C@H]3O)[C@H]3COC(=O)[C@H]23)OCO4)cc(OC)c1O [Etoposide]
[1]
  Caspase cascade activation ratio, T-47D: 1.0
[2]
  Caspase cascade activation ratio, PC-3: 0.8

## CC(C)=CCCC1(C)C=Cc2c(O)c3c(c(CC=C(C)C)c2O1)OC12C(=CC4CC1C(C)(C)OC2(C/C=C(\C)C(=O)O)C4=O)C3=O (stereo not drawn) [Example 18, Isogambogic Acid]
KB-V1 cell line
  Cytotoxicity against KB-V1 cell line: cytotoxic
KB cell line
  Cytotoxicity against KB cell line: cytotoxic

## CC(C)=CCC/C(C)=C/Cc1c(O)c(CC=C(C)C)c2c(c1O)C(=O)C1=CC3CC4C(C)(C)OC(C/C=C(/C)C=O)(C3=O)C14O2 (stereo not drawn) [Example 3, Gambogenin]
[3]; [16]
  PC-3 Ratio (caspase activity): 2.9
[4]; [16]
  T-47D Ratio (caspase activity): 7.0
[6]; [11]
  CC50: 5000 nM
[6]; [12]
  GI50: 2000 nM
T-47D cells
  CC50: 500 nM
T-47D cells; T-47D
  GI50: 500 nM
PC-3 cells; [13]
  CC50: 5000 nM
PC-3 cells; [14]
  GI50: 5000 nM
MRC-5 cells
  GI50: 3000 nM
[9]
  CC50 at 48 h: 5000 nM

## CC(C)=CCCC1(C)C=Cc2c(O)c3c(c(CC=C(C)C)c2O1)OC12C(=CC4CC1C(C)(C)OC2(C/C=C(/C)C(=O)N1CCN(C)CC1)C4=O)C3=O (stereo not drawn) [Example 9, Gambogyl (4-Methylpiperazine)]
[3]
  EC50: 5900 nM
[4]
  EC50: 990 nM
[7]
  EC50: 2050 nM
Caspase cascade
  EC50 at 24 h: 1900 nM
